Row | SMILES | melting point [°C]
1 | S=C(Oc1ccccn1)Oc1ccccn1 | 96 to 99
2 | CC(=O)NCCO | 16
3 | NC(CCCC(N)C(=O)O)C(=O)O (stereo not drawn) | 300
4 | O=C1NN(c2ccccc2)C(=O)/C1=C/c1ccccc1 | 275
5 | O=Cc1ccccc1OCc1ccccc1Cl | 84 to 86
6 | CCC[N+](=O)[O-] | -108
7 | Cc1c(C2(c3cc(C(C)C)c(O)c(CN(CC(=O)O)CC(=O)O)c3C)OC(=O)c3ccccc32)cc(C(C)C)c(O)c1CN(CC(=O)O)CC(=O)O | 191
8 | O=C(O)c1c(C(F)(F)F)ccnc1F | 92
9 | CCOC(=O)C(C)(C#N)c1ccccc1[N+](=O)[O-] (stereo not drawn) | 68
10 | CC(=O)OCC(=O)C1(O)C(OC(C)=O)CC2C3CCC4=CC(=O)C=CC4(C)C3(F)C(O)CC21C (stereo not drawn) | 235
11 | O=C(O)CCCCCC(=O)c1ccccc1 | 85
12 | CN(C)C(=O)CCC(=O)O | 84.5
13 | O=c1[nH]c2ccccc2n1CCCCl | 115 to 125
14 | ClC(Cl)(Cl)c1ccc(C(Cl)(Cl)Cl)cc1 | 109
15 | N#CC=C(Cl)C#N | 60.5
16 | CC12CCC(=O)CC1CCC1C2CCC2(C)C1CCC2(C)O (stereo not drawn) | 192
17 | CC(=O)OCC1OC(OC2(COC(C)=O)OC(COC(C)=O)C(OC(C)=O)C2OC(C)=O)C(OC(C)=O)C(OC(C)=O)C1OC(C)=O (stereo not drawn) | 86.5
18 | COc1cccc(/N=C(\C)c2c(O)c3ccccc3n(-c3ccccc3)c2=O)c1 | 178 to 179
19 | O=C(O)[C@@H]1Cc2ccccc2CN1C(=O)OCC1c2ccccc2-c2ccccc21 | 146 to 149
20 | O=CNC(Nc1ccc(Cl)c(Cl)c1)C(Cl)(Cl)Cl (stereo not drawn) | 135
21 | O=C(c1ccc(Cl)cc1)c1nn(-c2ccccc2)/c(=N\N=Cc2ccc(F)cc2)s1 | 150

Row | SMILES | melting point [°C]
22 | Cc1c(C)n(C)c2ccccc12 | 18
23 | COc1ccc(S(N)(=O)=O)c(OC)c1 | 168
24 | NC1C2CCC(C2)C1C(=O)O (stereo not drawn) | 275 to 278
25 | COc1ccc(C(=O)NCc2cccnc2)cc1C(=O)NCc1cccnc1 | 124
26 | O=C1C(Cl)=C(Cl)C(=O)C(Cl)=C1Cl | 290
27 | CN1CSCSC1 | 65
28 | CC(C=CC=C(C)C=CC1=C(C)C(=O)C(O)CC1(C)C)=CC=CC=C(C)C=CC=C(C)C=CC1=C(C)C(=O)C(O)CC1(C)C (stereo not drawn) | 182
29 | CCCCc1ccc(/N=N/c2ccc(O)cc2)cc1 | 49 to 49.5
30 | Cc1cncc(Cl)n1 | 48 to 52
31 | O=[N+]([O-])c1ccccc1/C=C(/Cl)c1ccccn1 | 60.5 to 61
32 | Cn1ccccc1=S | 89.5
33 | CCC(C)(C)c1cc(O)c(C(C)(C)CC)cc1O | 180
34 | C=CC(=O)OCC(CC)CCCC (stereo not drawn) | -90
35 | CCCC(C(N)=O)n1nnc2ccccc21 (stereo not drawn) | 125
36 | CCOC(=O)C1(c2ccccc2)CCN(CCc2ccc(N)cc2)CC1 | 83
37 | CC(C)Cc1ccc(CC(=O)O)cc1 | 86
38 | COc1ccc(C2(C)CCc3oc4c(Br)cc(Br)cc4c3-c3oc(C)cc32)cc1 (stereo not drawn) | 165
39 | CCOC(=O)NNC(=O)OCC | 135
40 | O=c1n(-c2ccccc2)c(=O)n2n1C1OC3c4ccccc4C1C32 (stereo not drawn) | 146
41 | N[C@@H](CSCc1ccccc1)C(=O)O | 209 to 214
42 | CCOC(=O)c1cc2c(=O)oc3ccccc3c2nc1NC | 232 to 233

Row | SMILES | melting point [°C]
43 | O=[N+]([O-])c1cc(C(F)(F)F)ccc1N1CCOCC1 | 34 to 36
44 | Sc1ccc(Cl)cc1 | 61
45 | O=C(O)Cc1ccc2ccccc2c1 | 142
46 | CC(C)(C)c1cc(C(C)(C)C)c(N=O)c(C(C)(C)C)c1 | 170 to 173
47 | Cc1ccc(C(=O)O)c([N+](=O)[O-])c1O | 186
48 | O=C(Cl)c1cccnc1Cl | 40
49 | Cc1ccc(C)c(C(=O)CC(C)(C)C(=O)O)c1 | 118 to 119
50 | Cc1ccc2c(c1)/C(=N/NC(N)=O)CC2C (stereo not drawn) | 227
51 | Nc1c(F)c(F)c(-c2c(F)c(F)c(F)c(F)c2F)c(F)c1F | 146
52 | CC(C)(C)SC1(C#N)CC1(C#N)SC(C)(C)C (stereo not drawn) | 104
53 | CCCC(CC(OCC)OCC)OCC (stereo not drawn) | -100
54 | O=Cc1cc(I)c(O)c(I)c1 | 201
55 | Cc1onc(-c2c(F)cccc2Cl)c1C(=O)Cl | 51
56 | Cc1ccc(S(=O)(=O)CCCl)cc1 | 77 to 78
57 | CN(C)c1ccc(C=Cc2ccc3ccccc3n2)cc1 | 184
58 | CC1(C)CC(=O)C2=C(C1)Nc1c(ccc3ccccc13)C2c1ccc(Cl)cc1 (stereo not drawn) | 139
59 | O=C(Cl)c1ccc(OC2CCOCC2)cc1 | 37.5 to 39
60 | N#Cc1ccc(N)c(OC(F)(F)F)c1 | 72
61 | O=C(O)c1cccc2ccsc12 | 176 to 178
62 | Clc1ccc2ncccc2c1 | 43.8
63 | c1cc2c(cc1N1N=N1)OCO2 | 129

Source: a melting point compilation (Tetko et al.)
